In patent US6835382B2, “Ii peptide therapeutics to enhance antigen presentation” (University of Massachusetts, priority 1996, dated 2004):
No end group written: not given here.

Columns and labels:
[1] = system: HLA-DR1 molecules; assay: release of biotin-labeled hMBP(90-102) from HLA-DR1 in the presence of unlabeled hMBP (assay II); assay type: binding, human; conditions: Table 37, unlabeled hMBP(90-102) 250 μM
[2] = molecular target: T1, HLA-DR1 molecules (Homo sapiens, UniProt P01903+P01911, A100R/D57E/F55L/F60I/F76Y/I96L/L162R/M171V/P40L/Q125E/R42F/V115G/Y59C); assay: binding of biotin-labeled hMBP(90-102) to "empty" HLA-DR1 (assay IV); conditions: Table 39; AE101 series compound 64 μM; biotin-labeled hMBP(90-102) 50 μM, 37° C., 1 h; no enhancement = 1
T1 construct: The HLA-DR alpha gene was truncated after Asn^192 to remove transmembranal and cytoplasmic regions from the protein product; A gene coding for the HLA-DR1 beta chain was truncated after position Lys^198, again to delete the transmembranal region; made in house; host or cells: insect cell line printed as HS / H5 (Invitrogen), co-infected with two baculoviruses; concentrated culture supernatant captured on 12CA5 antibody

[3] = system: HLA-DR1 molecules; assay: exchange of biotinylated hMBP(90-102) into antigenic peptide-loaded HLA-DR1 (assay III); assay type: binding, human; conditions: Table 38; HLA-DR1 preloaded with unlabeled hMBP(90-102) 50 μM; exchange with biotin-labeled hMBP(90-102) 50 μM, 37° C., 1 h; fraction of positive control o.d.; no enhancement = 0.08
[4] = system: HLA-DR1 molecules; assay: release of biotin-labeled hMBP(90-102) from HLA-DR1 without unlabeled antigenic peptide (assay I); assay type: binding, human; conditions: Table 37, no unlabeled hMBP(90-102)

**Q.** Which “Relative Release, With unlabeled hMBP(90-102), 1 μM” value ([1]; AE101 series compound 1 μM) does the source give for “cyclic LRMKLPK (bridge (positions not given here); also: cyclic, ring type not given here) [AE381, “head-to-tail” cyclization from the amino-terminus to the carboxyl-terminus of AE114]” here?
**A.** The value was 0.09.

**Q.** And the “Relative Release, With unlabeled hMBP(90-102), 64 μM” value ([1]; AE101 series compound 64 μM)?
**A.** Its value is −0.19.

**Q.** And the “Relative Enhancement” value [2]?
**A.** Its value is 1.84.

**Q.** What about the “Relative Binding” value [3] of the same substance?
**A.** Its value is −0.12.

**Q.** And the “Relative Release, Without unlabeled hMBP(90-102), 1 μM” value ([4]; AE101 series compound 1 μM)?
**A.** Its value is 0.64.

**Q.** And the “Relative Release, Without unlabeled hMBP(90-102), 64 μM” value ([4]; AE101 series compound 64 μM)?
**A.** The value was 0.5.
